The results in this text go back to the supplement of paper PMC10331698.

Common to all, as to test: level (log10 ratio to DMSO vehicle control); higher = higher biomarker level / cell amount than vehicle control
Compound in test [1]: C=C(C)C(=O)OCCC(F)(F)C(F)(F)C(F)(F)C(F)(F)C(F)(F)C(F)(F)C(F)(F)C(F)(F)F [8:2 Fluorotelomer methacrylate] (in DMSO)
The method, then:
(§1)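 BioMAP Diversity Plus panel of 12 human primary cell co-culture systems (3C, 4H, LPS, SAg, BT, BF4T, BE3C, CASM3C, HDF3CGF, KF3CT, MyoF, Mphg). Compounds were added 1 h before stimulation and left for 24 h (MyoF 48 h; BT 72 h for soluble read-outs or 6 d for IgG). Biomarkers were read by ELISA, cytotoxicity by SRB, PBMC viability and proliferation by Alamar Blue. Each well value was divided by the mean of 8 DMSO control wells on the same plate and log10 transformed; duplicate blinded samples were tested at 4 concentrations.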

Compound in test [2]: O=C(O)CCC(F)(C(F)(F)F)C(F)(F)F [4,4-bis(Trifluoromethyl)-4-fluoropropanoic acid] (in DMSO)
The method, then:
as §1

Compound in test [3]: CN(C(=O)C(F)(F)C(F)(F)C(F)(F)F)[Si](C)(C)C [N-Methyl-N-trimethylsilylheptafluorobutyramide] (in DMSO)
The method, then:
as §1

Compound in test [4]: NS(=O)(=O)C(F)(F)C(F)(F)C(F)(F)C(F)(F)C(F)(F)C(F)(F)C(F)(F)C(F)(F)F [Perfluorooctanesulfonamide] (in DMSO)
The method, then:
as §1

Compound in test [5]: OCC(F)(F)C(F)(F)C(F)(F)C(F)F [1H,1H,5H-Perfluoropentanol] (in DMSO)
The method, then:
as §1

Compound in a further test: O=C(O)C(F)(F)C(F)(F)C(F)(F)C(F)(F)C(=O)O [Octafluoroadipic acid] (in DMSO)
As to the method:
as §1

Compound in test [6]: O=C(O)C(F)(F)OC(F)(F)C(F)(F)OC(F)(F)C(F)(F)OC(F)(F)C(F)(F)C(F)(F)C(F)(F)F [Perfluoro-3,6,9-trioxatridecanoic acid] (in DMSO)
The conditions noted are these: 6700 nM. The method, then: as §1

Compound in the next test: O=C(O)C(F)(F)C(F)(F)C(F)(F)C(F)(F)C(F)(F)C(F)(F)C(F)(F)C(F)(F)F [Perfluorononanoic acid] (in DMSO)
As to the method: as §1

± gives the standard deviation of the averaged measurements.

For BF4T:Keratin 8/18, the “level (log10)” value in test [1] (6700 nM) was -0.019 ± 0.0028; in test [1] (20000 nM), 0.0115 ± 0.016; in test [2] (6700 nM), -0.0015 ± 0.0064; in test [2] (20000 nM), -0.032 ± 0.051; in test [2] (60000 nM) it was -0.0015 ± 0.03; in test [3] (6700 nM), -0.0105 ± 0.052. Also, the “level (log10)” value in test [3] (20000 nM) is 0.0115 ± 0.03; in test [3] (60000 nM), 0.013 ± 0.017; in test [4] (6700 nM) it was -0.0085 ± 0.005; in test [4] (20000 nM), -0.069 ± 0.023; in test [5] (6700 nM), -0.046 ± 0.033; in test [5] (20000 nM) it was 0.006 ± 0.044. Moreover, the “level (log10)” value is 0.0235 ± 0.023 in test [5] (60000 nM); 0.002 ± 0.023 with Octafluoroadipic acid (6700 nM); -0.004 ± 0.021 in the test with Octafluoroadipic acid (20000 nM); 0.004 ± 0.037 in the test with Octafluoroadipic acid (60000 nM); -0.0195 ± 0.079 in test [6]; -0.0155 ± 0.016 with Perfluorononanoic acid (6700 nM). In addition, the “level (log10)” value with Perfluorononanoic acid (20000 nM) amounted to 0.0075 ± 0.023.

For the test system BF4T:MMP-1, the “level (log10)” value in test [1] (6700 nM) is -0.01 ± 0.0085; in test [1] (20000 nM), 0.0055 ± 0.00071; in test [2] (6700 nM) it was -0.0025 ± 0.012; in test [2] (20000 nM), -0.0015 ± 0.00071; in test [2] (60000 nM) it was -0.004 ± 0.013; in test [3] (6700 nM), -0.0105 ± 0.04. In addition, the “level (log10)” value was -0.0105 ± 0.054 in test [3] (20000 nM); 0.0005 ± 0.018 in test [3] (60000 nM); 0.003 ± 0.016 in test [4] (6700 nM); 0.0075 ± 0.019 in test [4] (20000 nM); 0.002 ± 0.018 in test [5] (6700 nM); 0.0095 ± 0.018 in test [5] (20000 nM). In addition, the “level (log10)” value is 0.012 ± 0.033 in test [5] (60000 nM); 0.0065 ± 0.011 with Octafluoroadipic acid (6700 nM); -0.0025 ± 0.015 in the test with Octafluoroadipic acid (20000 nM); 0.007 ± 0.0028 in the test with Octafluoroadipic acid (60000 nM); -0.0535 ± 0.012 in test [6]; -0.012 ± 0.028 with Perfluorononanoic acid (6700 nM). Besides, the “level (log10)” value with Perfluorononanoic acid (20000 nM) is 0.0095 ± 0.016.

Regarding BF4T:MMP-3, the “level (log10)” value in test [1] (6700 nM) was -0.0035 ± 0.019; in test [1] (20000 nM), 0.0255 ± 0.044; in test [2] (6700 nM), 0.0295 ± 0.022; in test [2] (20000 nM), 0.0285 ± 0.00071; in test [2] (60000 nM), 0.031 ± 0.052; in test [3] (6700 nM), -0.016 ± 0.031. The “level (log10)” value in test [3] (20000 nM) is -0.008 ± 0.011; in test [3] (60000 nM), 0 ± 0.017; in test [4] (6700 nM) it was 0.004 ± 0.024; in test [4] (20000 nM), 0.0845 ± 0.028; in test [5] (6700 nM), -0.0125 ± 0.0064; in test [5] (20000 nM), -0.007 ± 0.0099. The “level (log10)” value is 0.002 ± 0.021 in test [5] (60000 nM); 0.0055 ± 0.033 with Octafluoroadipic acid (6700 nM); -0.0055 ± 0.035 with Octafluoroadipic acid (20000 nM); 0.0025 ± 0.022 with Octafluoroadipic acid (60000 nM); -0.0415 ± 0.064 in test [6]; 0.0005 ± 0.035 in the test with Perfluorononanoic acid (6700 nM). Further, in the test with Perfluorononanoic acid (20000 nM), the “level (log10)” value was 0.015 ± 0.0071.

Turning to BF4T:MMP-9, the “level (log10)” value was -0.002 ± 0.059 in test [1] (6700 nM); 0.026 ± 0.061 in test [1] (20000 nM); 0.0265 ± 0.042 in test [2] (6700 nM); 0.0145 ± 0.022 in test [2] (20000 nM); 0.015 ± 0.042 in test [2] (60000 nM); -0.0305 ± 0.064 in test [3] (6700 nM). Moreover, the “level (log10)” value in test [3] (20000 nM) was -0.012 ± 0.033; in test [3] (60000 nM), 0.0095 ± 0.023; in test [4] (6700 nM) it was -0.006 ± 0.025; in test [4] (20000 nM), -0.113 ± 0.018; in test [5] (6700 nM) it was -0.001 ± 0.0085; in test [5] (20000 nM), 0.0065 ± 0.019. Besides, the “level (log10)” value in test [5] (60000 nM) was 0.0035 ± 0.013; in the test with Octafluoroadipic acid (6700 nM), -0.0075 ± 0.047; in the test with Octafluoroadipic acid (20000 nM), -0.0065 ± 0.036; with Octafluoroadipic acid (60000 nM), 0.0165 ± 0.026; in test [6] it was -0.106 ± 0.079; with Perfluorononanoic acid (6700 nM), -0.034 ± 0.038. In addition, the “level (log10)” value in the test with Perfluorononanoic acid (20000 nM) was -0.032 ± 0.0042.

BF4T:PAI-I: the “level (log10)” value in test [1] (6700 nM) was -0.0075 ± 0.0092; in test [1] (20000 nM), 0.0055 ± 0.012; in test [2] (6700 nM), -0.002 ± 0.014; in test [2] (20000 nM), -0.01 ± 0.013; in test [2] (60000 nM), 0.008 ± 0.011; in test [3] (6700 nM) it was 0.0055 ± 0.04. The “level (log10)” value in test [3] (20000 nM) is -0.007 ± 0.017; in test [3] (60000 nM) it was 0.0025 ± 0.0064; in test [4] (6700 nM), -0.004 ± 0.011; in test [4] (20000 nM) it was -0.038 ± 0.0099; in test [5] (6700 nM), 0.01 ± 0.0085; in test [5] (20000 nM), 0.0095 ± 0.018. For the same test system, the “level (log10)” value in test [5] (60000 nM) was 0.0215 ± 0.026; in the test with Octafluoroadipic acid (6700 nM) it was -0.0045 ± 0.026; with Octafluoroadipic acid (20000 nM), -0.011 ± 0.013; with Octafluoroadipic acid (60000 nM) it was 0.007 ± 0.0071; in test [6], -0.011 ± 0.011; with Perfluorononanoic acid (6700 nM), -0.0145 ± 0.03. Besides, the “level (log10)” value in the test with Perfluorononanoic acid (20000 nM) was -0.007 ± 0.028.

Take BF4T:SRB: the “level (log10)” value in test [1] (6700 nM) was -0.0045 ± 0.0035; in test [1] (20000 nM), -0.0005 ± 0.00071; in test [2] (6700 nM) it was 0.0065 ± 0.015; in test [2] (20000 nM), 0.0015 ± 0.021; in test [2] (60000 nM), 0.02 ± 0.014; in test [3] (6700 nM), -0.0055 ± 0.00071. Further, the “level (log10)” value in test [3] (20000 nM) was -0.003 ± 0.0042; in test [3] (60000 nM), -0.0005 ± 0.00071; in test [4] (6700 nM), -0.009 ± 0.0028; in test [4] (20000 nM), -0.052; in test [5] (6700 nM), -0.0055 ± 0.0021; in test [5] (20000 nM), 0.001 ± 0.0085. Also, the “level (log10)” value in test [5] (60000 nM) is 0.002 ± 0.0014; in the test with Octafluoroadipic acid (6700 nM), -0.0145 ± 0.0064; with Octafluoroadipic acid (20000 nM), -0.011 ± 0.0071; in the test with Octafluoroadipic acid (60000 nM), -0.0065 ± 0.0035; in test [6], -0.038 ± 0.013; with Perfluorononanoic acid (6700 nM), -0.002 ± 0.0014. Besides, in the test with Perfluorononanoic acid (20000 nM), the “level (log10)” value is -0.028 ± 0.0014.

For the test system BF4T:tPA, the “level (log10)” value was -0.027 ± 0.0028 in test [1] (6700 nM); -0.017 ± 0.0057 in test [1] (20000 nM); -0.0185 ± 0.035 in test [2] (6700 nM); -0.019 ± 0.013 in test [2] (20000 nM); -0.0035 ± 0.023 in test [2] (60000 nM); -0.0155 ± 0.015 in test [3] (6700 nM). Further, the “level (log10)” value was 0.0015 ± 0.032 in test [3] (20000 nM); 0.012 ± 0.0057 in test [3] (60000 nM); -0.059 ± 0.013 in test [4] (6700 nM); 0.006 ± 0.02 in test [4] (20000 nM); -0.009 ± 0.028 in test [5] (6700 nM); 0.0335 ± 0.022 in test [5] (20000 nM). Moreover, the “level (log10)” value in test [5] (60000 nM) is 0.04 ± 0.058; with Octafluoroadipic acid (6700 nM), -0.007 ± 0.0014; in the test with Octafluoroadipic acid (20000 nM) it was -0.0065 ± 0.025; with Octafluoroadipic acid (60000 nM), 0.0035 ± 0.005; in test [6], -0.185 ± 0.057; with Perfluorononanoic acid (6700 nM) it was -0.025 ± 0.027. In addition, the “level (log10)” value in the test with Perfluorononanoic acid (20000 nM) was -0.0995 ± 0.026.
